The results in this text go back to patent US6114390A, “Amino acid derivatives, pharmaceutical compositions containing these compounds and processes for preparing them” (Karl Thomae GmbH, priority 1997, dated 2000).

One test addresses T1, human Y1 -receptor (Homo sapiens, UniProt P25929).
T1 construct: endoge- nously expressing Y1 and Y2 receptors; endogenous in cells; host or cells: SK-N-MC (neuroblastoma) cells
T1 sequence (P25929 1-384): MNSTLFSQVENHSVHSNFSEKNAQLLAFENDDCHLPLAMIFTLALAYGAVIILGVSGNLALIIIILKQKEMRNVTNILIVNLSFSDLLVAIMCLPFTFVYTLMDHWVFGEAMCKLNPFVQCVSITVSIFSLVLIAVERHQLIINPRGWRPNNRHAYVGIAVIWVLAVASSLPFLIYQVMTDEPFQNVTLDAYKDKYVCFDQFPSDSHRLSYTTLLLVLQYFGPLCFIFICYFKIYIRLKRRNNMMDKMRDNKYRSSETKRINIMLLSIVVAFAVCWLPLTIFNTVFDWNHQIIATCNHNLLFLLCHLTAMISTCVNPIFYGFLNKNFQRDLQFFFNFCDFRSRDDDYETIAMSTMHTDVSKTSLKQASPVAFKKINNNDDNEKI
The experiment in a line: Receptor binding to SK-N-MC cells ([125I]-Bolton-Hunter-NPY displacement). The conditions noted are these: Table 1. The procedure:
Incubation is ended by centrifuging (10 minutes at 3000×gand […].). After washing once with PBS, the radioactivity of the pellet is measured in a gamma counter. […] The proportion of non-specific binding is defined as that radioactivity which is bound in the presence of 1 μM NPY. The IC50 values of the unlabelled test substances are determined graphically.

The test system of the next test is NPY induced food intake. As to the kind of experiment: Food intake in satiated rats after NPY application to the PVN. The class given is in vivo, rat. The procedure:
For these determinations food intake was measured in normal satiated rats after application of NPY to the paraventricular nucleus (PVN) in the presence or absence of the test compound. […] The rats were individually housed in stainless steel cages where water and food were available ad libitum.
Rats under Pentobarbital anaesthesia were stereotactically implanted with a stainless steel double guide cannula targeted bilaterally at the PVNs. Stereotactic coordinates were: -1.8mm caudal, 0.5mm lateral to bregma and 7.0 mm below the skull surface. Injection cannulae extended the guide cannulae by 1 mm. Animals were allowed to recover from surgery for at least 10 days before being used in the experiments. Rats were handled and mock-injected during the […] recovery period to habituate them to the injection procedure.
Animals treated with both test compounds and NPY were treated first with the test compound. Then, 15 min. after PVN infusion of the test compound or vehicle (control) 1 μg of NPY was administered by PVN infusion.
Food intake was measured by placing preweighed pellets into the cages at the time of NPY injection. Pellets were removed from the cage at 2 h post NPY injection. The food intake of animals treated with test compound was calculated as a percentage of the food intake of control animals, i.e., animals treated with vehicle.

Test [1] relates to NPY. As to the kind of experiment: In vivo NPY-antagonism, NPY-induced blood pressure effects in pithed rats. The conditions noted are these: Rattus norvegicus, iv, 1 min, NPY 10 μg/kg i.v., diastolic blood pressure, read-out: pIC50 (in vivo NPY-antagonism) (converted). Here is the method:
After intubation of the trachea the animals are pithed by introducing a blunt needle through the eye into the spinal bone marrow channel. The animals are ventilated with oxygen-rich ambient air using a respiratory pump (20 strokes/minute). A cannula is inserted in the left carotid artery and the arterial blood pressure is measured using a pressure gauge (Braun Melsungen Combitrans) connected to a recording device. For injection purposes a catheter is placed in the left jugular vein through which heparin is administered (200 IU/kg, i.v.). After the blood pressure has been stabilised, the animals are given 2 bolus injections of NPY (10 μg/kg, i.v.) at intervals of 15 minutes. The average increase in diastolic blood pressure is taken as the reference value (=100%). The test substances are injected in increasing doses (4 to 6 doses) at intervals of 15 minutes. One minute after administration of the test substance, NPY is administered.
The antagonistic effect of the test substances is determined by plotting the percentage inhibition of the NPY-induced blood pressure effects against the logarithm of the concentration of active substance.

The test system of test [2] is NPY. The experiment in a line: NPY-antagonism in vitro, isolated perfused rat kidney. The conditions noted are these: NPY 1 μM bolus. The procedure: The abdomen is opened along the centre of the body and the left kidney is removed after the insertion of catheters in the renal artery, renal vein and ureter. The isolated kidney is immediately perfused with a modified Krebs-Ringer solution having the following composition (4 ml/minute):
The perfusion pressure is measured continuously using a pressure gauge. After a 60 minute stabilisation period the perfusion rate is adjusted so as to obtain a perfusion pressure of approximately 100 mm Hg. After a further 30 minutes the experiment is started and NPY (1μM) is administered as a bolus (0.1 ml) at 15 minute intervals until the pressure increase observed reaches a constant value. The compounds to be tested are given in the form of a continuous infusion over a period of 5 minutes and then NPY is injected. After a 30 minute wash-out period the next highest concentration of test substance is investigated. 3 to 5 different concentrations of the particular compound are tested on each occasion. Concentration/activity curves can be obtained by plotting the percentage inhibition of the NPY activity against the logarithm of the concentration (mol/1) of the compound.

For orientation: IC50 means the point on the concentration scale where inhibition reaches its midpoint.

Structures can show the parent of a compound that is named as a salt.

Compound `N=C(N)NCCC[C@@H](NC(=O)Nc1ccc(Cl)c(Cl)c1)C(=O)NCc1ccc(CNC(N)=O)cc1` [K] yielded a 50% inhibitory concentration (IC50) at human Y1 -receptor of 1.8 nM.
Regarding `COc1ccc2cc(C(=O)N[C@H](CCCNC(=N)N)C(=O)NCc3ccc(CNC(N)=O)cc3)ccc2c1` [N, (R)-N-[[4-(Aminocarbonylaminomethyl)phenyl]methyl]-N^2-(6-methoxy-2-naphthoyl)-argininamide-acetate], on human Y1 -receptor, the IC50 amounted to 3.4 nM. This IC50 lies about 1.9-fold higher than the previous one.
On human Y1 -receptor, `N=C(N)NCCC[C@@H](NC(=O)CC(c1ccccc1)c1ccccc1)C(=O)NCc1ccc(CNC(N)=O)cc1` [O, (R)-N-[[4-(Aminocarbonylaminomethyl)phenyl]methyl]-N^2-(3,3-diphenyl-1-oxopropyl)-argininamide] showed an IC50 of 3.45 nM.
With `COC(=O)COc1ccc(C(C(=O)N[C@H](CCCNC(=N)N)C(=O)NCc2ccc(CNC(N)=O)cc2)c2ccc(O)cc2)cc1` (stereo partly drawn) [L], the IC50 at human Y1 -receptor is 2.2 nM.
The compound `NC(=O)Cc1ccc(CNC(=O)[C@@H](CCCNc2ncc[nH]2)NC(=O)C(c2ccccc2)c2ccccc2)cc1` [S, (R)-N-[[4-(Aminocarbonylmethyl)phenyl]methyl]-N^2-(diphenylacetyl)-N^5-(1H-imidazol-2-yl)-ornithinamide-hydroiodide] yielded an IC50 at human Y1 -receptor of 28.3 nM.
On the same count and under the same terms, to `N=C(N)NCCC[C@@H](NC(=O)Cc1cc(Cl)c(N)c(Cl)c1)C(=O)NCc1ccc(CNC(N)=O)cc1` [R, (R)-N-[[4-(Aminocarbonylaminomethyl)phenyl]methyl]-N^2-[(4-amino-3,5-dichlorphenyl)acetyl]-argininamide-tri-fluoracetate] belongs 4.5 nM.
Take “Neuropeptide Y [NPY, reference compound]”: the “two hour food intake induced by NPY” value in the test on NPY induced food intake (NPY 1 μg, versus 0.5 g with vehicle) is listed as 3.5 g.
As for `CN(Cc1ccc(CNC(N)=O)cc1)C(=O)[C@@H](CCCNC(=N)N)NC(=O)C(c1ccccc1)c1ccccc1` [P, (R)-N-[[4-(Aminocarbonylaminomethyl)phenyl]methyl]-N^2-(diphenylacetyl)-N-methyl-argininamide-acetate], the IC50 at human Y1 -receptor is 3.5 nM.
For the compound `CCOC(=O)NC(=O)NCc1ccc(CNC(=O)[C@@H](CCCNC(=N)N)NC(=O)C(c2ccccc2)c2ccccc2)cc1` [H, (R)-N^2-(Diphenylacetyl)-N-[[4-(ethoxycarbonylamino-carbonylaminomethyl)phenyl]methyl]-argininamide-trifluor-acetate], the 50% inhibitory concentration (IC50) at human Y1 -receptor amounted to 1.1 nM.
For `N=C(N)NCCC[C@@H](NC(=O)C(c1ccc(O)cc1)c1ccc(O)cc1)C(=O)NCc1ccc(CNC(N)=O)cc1` [A], in the test with NPY induced food intake (30 μg, PVN, 2 h, 1 μg NPY), the “% Inhibition of food intake” value stood at 32% and the “Food intake following NPY application” value is given as 2.40 g/animal.
For the compound `CN(C)C(=O)NCc1ccc(CNC(=O)[C@@H](CCCNC(=N)N)NC(=O)C(c2ccccc2)c2ccccc2)cc1` [I, (R)-N-[[4-(Dimethylaminocarbonylaminomethyl)phenyl]methyl]-N^2-(diphenylacetyl)-argininamide-bis-(trifluor-acetate)], on human Y1 -receptor, the IC50 is 1.5 nM.
On to `CCOC(=O)NCc1ccc(CNC(=O)[C@@H](CCCNC(=N)N)NC(=O)C(c2ccccc2)c2ccccc2)cc1` [Q, (R)-N^2-(Diphenylacetyl)-N-[[4-(ethoxycarbonylamino-methyl)phenyl]methyl]-argininamide-trifluoracetate], for which, in the test on NPY [1], the ED50 is 0.162 µmol/kg. At human Y1 -receptor, this compound returned an IC50 of 4.25 nM. Besides, the “pIC50 (NPY-antagonism in vitro)” value in the test with NPY [2] is recorded as 7.77.
As to `N=C(N)NCCC[C@@H](NC(=O)C(c1ccccc1)c1ccccc1)C(=O)OCc1ccc(CNC(N)=O)cc1` [M, (R)-N^2-(Diphenylacetyl)-arginine-[4-(aminocarbonylamino-methyl)phenyl]methylester-trifluoracetate], at human Y1 -receptor, the IC50 is 3 nM. That is a single-digit nanomolar value.
In the case of `CN(CCCC(NC(=O)C(c1ccccc1)c1ccccc1)C(=O)NCc1ccc(O)cc1)C(=N)N` (racemic) [Compound E, (R,S)-N^5-(Aminoiminomethyl)-N^2-(diphenylacetyl)-N-[(4-hydroxyphenyl)methyl]-N^5-methyl-ornithinamide-hydrochloride], in the test on NPY [1], the ED50 is 0.0135 µmol/kg. In addition, in the test on NPY [2], the “pIC50 (NPY-antagonism in vitro)” value is 8.41.
